Measurements reported in US10144762B2, “Antibacterial antisense oligonucleotide and method” (priority 2005, dated 2018).
Converted amounts (≈) assume the structure as drawn. “And” between values parts separate entries of the source, which are not always exact repeats. Equal entries are not always repeated. Where two headings read alike, the source gives them in different places.

Columns and labels:
[1] = tested on: E. coli AS19; type: cell-based
[2] = tested on: E. coli AS19 (pT7myc-luc); type: in vivo; details: mice; for CFU/ml (×10^6): peritoneal lavage
[3] = tested on: luciferase transcript; design: species or system firefly; details: in vivo
[4] = tested on: luciferase transcript; assay: Western blot of luciferase protein normalized to OmpA in peritoneal lavage bacteria; type: in vivo, firefly; design: Western Blot % Inhibition (luciferase protein): concentration or dose not given beside the values; details: for Western Blot % Inhibition (luciferase protein): compared to nonsense PMO-treated mice; for Western Blot Luc/OmpA Mean: n = 7-8
[5] = tested on: E. coli W3110; assay: E. coli W3110 pure culture, CFU/ml and dose-response; type: cell-based
[6] = tested on: E. coli W3110; assay: MIC, broth microdilution method of the Clinical and Laboratory Standards Institute; type: cell-based; details: Escherichia coli, read-out: minimum inhibitory concentration (MIC)

| IC50 ([5]; Escherichia coli, E. coli W3110 pure culture (FIG. 14), read-out: IC50 (50% inhibitory concentration)) [µM] | MIC [6] [µM] | Compound | growth monitored by optical density [1] | viable cells (CFU/ml) [1] | CFU/ml (×10^6) ([2]; 13 h after treatment) | CFU/ml (×10^6) ([2]; 22 h after treatment) | Luciferase Activity RLU/CFU Mean [3] | Western Blot % Inhibition (luciferase protein) ([4]; 13 h) [%] | Western Blot Luc/OmpA Mean ([4]; 13 h after treatment) | Western Blot % Inhibition (luciferase protein) ([4]; 22 h) [%] | Western Blot Luc/OmpA Mean ([4]; 22 h after treatment) | antibacterial activity (CFU/ml after 8 hours) ([5]; E. coli W3110 (FIG. 13)) | inhibition of growth compared to nonsense PMO treatment ([2]; treated at 0 and 13 hours post-infection) | Luciferase Activity % Inhibition [3] | Western Blot % Inhibition (luciferase protein) ([4]; 22 h, listed as luc PMO) [%] |
| --- | --- | --- | --- | --- | --- | --- | --- | --- | --- | --- | --- | --- | --- | --- | --- |
|  |  | PMO 62-4: acpP-14mer PMO, TC GAT AGT GCT CAT, SEQ ID NO 65 (antisense TCGATAGTGCTCAT; all phosphorodiamidate morpholino (PMO)) | statistically insignificant inhibitions | significantly reduced |  |  |  |  |  |  |  |  |  |  |  |
|  |  | Nonsense: nonsense PMO control for luc PMO, TCC ACT TGC C, SEQ ID NO 78 (TCCACTTGCC; all phosphorodiamidate morpholino (PMO)) [reference compound] |  |  | 4.3 ×10^6 CFU/ml | 0.39 ×10^6 CFU/ml | 6.19 RLU/CFU and 8.12* RLU/CFU | 0 | 0.382 | 0 | 0.339 |  |  |  |  |
| 7.7 | 10 (≈ 3.49 µg/mL) | CC1(C)S[C@@H]2[C@H](NC(=O)[C@H](N)c3ccccc3)C(=O)N2[C@H]1C(=O)O [ampicillin] |  |  |  |  |  |  |  |  |  | showed antibacterial activity |  |  |  |
|  |  | Luc: PMO complementary to the region around the start codon of the luciferase transcript, ACG TTG AGG C, SEQ ID NO 77 (antisense ACGTTGAGGC; all phosphorodiamidate morpholino (PMO)) |  |  | 6.3 ×10^6 CFU/ml | 0.96 ×10^6 CFU/ml | 3.20 RLU/CFU and 2.90 RLU/CFU | 68 | 0.122 | 57 | 0.147 |  | no inhibition of growth | 53% and 46% | 47 |
